# Assay results reported in paper PMC9611727, “Optimization of a Novel Mandelamide-Derived Pyrrolopyrimidine Series of PERK Inhibitors” (Pharmaceutics, 2022).
# Read-outs that look alike come from different tables or passages of the source.
# Experiments:
# [1] = tested on: p-eIF2α; assay: Cellular PERK inhibition: p-eIF2a TR-FRET in tunicamycin-treated HEK293-EGFP-eIF2a cells; assay type: cell-based
# Procedure: Methods used to evaluate in vitro cellular PERK inhibition are described and published elsewhere. In brief, stableHEK293 cells were created using lentiviral particles harboring a GFP-eIF2a expression vector. Transfectants were selected by puromycin and enriched using fluorescent cell sorting based on GFP expression. HEK293-EGFP-eIF2a cells were plated at 5000 cells/well in 384-well assay plates and incubated overnight. The following day, pyrrolopyrimidine analogs were added to wells using an Echo acoustic dispenser and incubated for 30 min. ER stress was induced by the addition of tunicamycin to the wells at […] for 2 h. Cells were lysed and peIF2a was evaluated using a TR-FRET system, as described above.
# The PERK activity of analog I was evaluated using cell-free biochemical assays. In these assays, PERK phosphorylation of eIF2a was assessed using a FRET-based labelled protein assay. Compounds were then evaluated for cellular activity by quantifying inhibition of eIF2a phosphorylation in HEK293 cells treated with the ER inducer tunicamycin [7].
# [2] = Plasma protein binding (RED dialysis), human; assay type: in vitro ADME; details: both sexes, pooled human plasma, pH 7.4
# Source text: (§1) Verapamil hydrochloride and tamoxifen were obtained from Sigma-Aldrich. […]
# (§2) Pooled mixed gender human donor plasma, Sprague Dawley male rat plasma, CD-1 (ICR) male mouse plasma and male beagle dog plasma were obtained from Bioreclamation Inc. (Westbury, NY). Reusable Teflon base plate, RED Device inserts, and BupH Phosphate Buffered Saline packs (0.1 M sodium phosphate and 0.15 M sodium chloride when dissolved in 0.5 L water) were obtained from Thermo Scientific (Waltham, MA). Propranolol was obtained from Sigma-Aldrich (St. Louis, MO). All solvents were obtained from commercial sources and used without further purification.
# (§3) Frozen plasma was thawed and the pH of plasma and BupH phosphate buffered saline was adjusted to 7.4 prior to dialysis. Into each well of a reusable Teflon 48-well base plate a RED insert was placed open end up. Ten microliters (10 µL) of the test compound (0.1 mM in acetonitrile/water, 1:1 v/v) was added to 990 µL of plasma to achieve 1 µM final concentration. The spiked plasma (200 µL) was added to the sample chamber, which is indicated by the red retainer ring (donor side). To the other side (receiver side), 350 µL of BupH phosphate buffered saline (pH 7.4) was added. A buffer-to-buffer assay was also performed to measure equilibrium across the membrane in the absence of plasma protein.
# (§4) Propranolol was used as a positive control. All samples were prepared in triplicate. The RED device base plate was then sealed and placed in a shaking incubator set to maintain 37°C and 200 rpm for four hours.
# (§5) After incubation, 100 µL of each sample was combined with an equal volume of either plasma or buffer, to create a similar matrix for all samples. Blank buffer was added to plasma samples, and vice versa. Samples from the incubation, along with the original compound-spiked plasma samples, were prepared for analysis in the same manner. Protein precipitation by addition of two parts of ice-cold acetonitrile to one part of reaction volume was carried out. To ensure complete protein precipitation samples were sealed and placed overnight at 4°C. The next morning samples were centrifuged at 3,600 rpm for 15 minutes. The supernatants (70 µL) were supplemented with an equal volume of internal standard solution (0.15 µM verapamil in water) and subjected to LC-MS/MS analysis.
# [3] = Plasma protein binding (RED dialysis), dog; assay type: in vitro ADME; details: male, beagle, pH 7.4
# Source text: as §1, §2, §3, §4, §5
# [4] = Metabolic clearance in hepatocytes, human; assay type: in vitro ADME; details: male, pooled cryopreserved human hepatocytes (ten donors), read-out: Hepatocyte Clearance (t1/2 min) Human
# Procedure: (§6) Metabolic Clearance in Hepatocytes
# (§7) Testosterone was obtained from Cerilliant (Round Rock, TX). 7-Hydroxycoumarin was obtained from Sigma-Aldrich (St.
# (§8) Louis, MO). Ten-donor male pooled cryopreserved human hepatocytes, cryopreserved male Sprague Dawley rat hepatocytes, cryopreserved male ICR/CD-1 mouse hepatocytes, cryopreserved male beagle dog hepatocytes, In VitroGro HI Medium (Incubation), and InVitroGro HT Medium (Thawing) were obtained from Bioreclamation IVT (Baltimore, MD). All solvents were obtained from commercial sources and used without further purification.Test compound was prepared as a 1 mM stock solution in DMSO. A 2 µM solution of test compound and testosterone was prepared (7 - hydroxycoumarin was prepared at 20 µM) in In VitroGro HI Medium (Incubation). These solutions were placed in a sterile incubator set to maintain 37°C, 5% CO2, and 98% humidity to pre-warm. Cryopreserved hepatocytes were prepared at a concentration of 2 x 10^6 living cells/mL in incubation media and placed in the incubator to pre-warn. The compound solutions and hepatocyte mixtures were then combined at a ratio of 1:1 (v:v). The final volume of the reaction mixture was 750 µL, containing 1 µM test compound and 1 x 10^6 cells/mL. The reaction mixture was placed in the incubator on a plate shaker. After 0, 15, 30, 60, 90, and 120 minutes of incubation, 100 µL of reaction mixtures were removed from the incubation plate and mixed with 150 µL of ice-cold acetonitrile in a designated well of a 96-well crash plate. The 96-well crash plate was placed on ice for 15 min, and samples were centrifuged (3,600 rpm, 10 min, 4 °C) to precipitate protein.
# (§9) The supernatants were diluted 1:1 (v/v) with water containing tolbutamide, (internal standard for positive and negative modes, respectively) in a 96-well shallow injection plate. This plate was sealed for LC-MS analysis. All measurements
# [5] = Metabolic clearance in hepatocytes, dog; assay type: in vitro ADME; details: male, beagle, cryopreserved dog hepatocytes, read-out: Hepatocyte Clearance (t1/2 min) Dog
# Procedure: as §6, §7, §8, §9
# [6] = Homo sapiens, HEK293 cells, tunicamycin-induced ER stress, read-out: p-eIF2α IC50
Compound,"IC50 [1, 6]","fraction unbound at 4 h, 1 µM [2]","fraction unbound at 4 h, 1 µM [3]",half-life at 1 µM [4],half-life at 1 µM [5],"IC50 ([1]; bound stated, read-out: cellular potency)"
"Cc1cc(NC(=O)[C@H](O)c2cccc(F)c2)ccc1-c1cn(C)c2ncnc(N)c12 [Compound 11, (R)-N-(4-(4-amino-7-methyl-7H-pyrrolo[2,3-d]pyrimidin-5-yl)-3-methylphenyl)-2-(3-fluorophenyl)-2-hydroxy acetamide]",8.4 nM,,,,,
Cc1nc(N)c2c(-c3ccc(NC(=O)[C@H](O)c4cccc(F)c4)cc3C)cn(C)c2n1 [Compound 24],51 nM,0.008,0.03,12.2 h,> 16.7 h,
Cc1nc(N)c2c(-c3ccc(NC(=O)[C@H](O)c4cccc(C(F)(F)F)c4)cc3C)cn(C)c2n1 [Compound 26],15 nM,0.002,0.005,3.23 h,2.17 h,
Cc1nc(N)c2c(-c3ccc(NC(=O)[C@H](O)c4cccc(Cl)c4)cc3C)cn(C)c2n1 [Compound 28],16 nM,0.002,0.017,13 h,5.92 h,
Cc1nc(N)c2c(-c3ccc(NC(=O)[C@H](O)c4cc(F)cc(F)c4)cc3C)cn(C)c2n1 [Compound 38],14 nM,0.01,0.016,14.9 h,7.67 h,
Cc1nc(N)c2c(-c3ccc(NC(=O)[C@H](O)c4cc(F)cc(C(F)(F)F)c4)cc3C)cn(C)c2n1 [Compound 39],11 nM,0.001,< 0.001,4.62 h,3.72 h,
Cc1cc(F)cc([C@@H](O)C(=O)Nc2ccc(-c3cn(C)c4nc(C)nc(N)c34)c(C)c2)c1 [Compound 41],10 nM,0.004,0.012,1.13 h,3.87 h,
Cc1nc(N)c2c(-c3ccc(NC(=O)[C@H](O)c4cccc(Cl)c4)cc3F)cn(C)c2n1 [Compound 48],10 nM,0.001,0.004,9.27 h,3.58 h,< 15 nM
Cc1nc(N)c2c(-c3ccc(NC(=O)[C@H](O)c4cccc(F)c4)c(F)c3C)cn(C)c2n1 [Compound 65],30 nM,0.004,0.013,6.5 h,9.45 h,
Cc1nc(N)c2c(-c3cc(F)c(NC(=O)[C@H](O)c4cccc(F)c4)cc3C)cn(C)c2n1 [Compound 66],42 nM,0.007,0.018,5.97 h,0.65 h,
"Cc1nc(N)c2c(-c3ccc(NC(=O)[C@H](O)c4cccc(F)c4)c(F)c3F)cn(C)c2n1 [Compound 70, (R)-N-(4-(4-amino-2,7-dimethyl-7H-pyrrolo[2,3-d]pyrimidin-5-yl)-2,3-difluorophenyl)-2-(3-fluorophenyl)-2-hydroxyacetamide]",24 nM,0.006,0.006,6 h,4.47 h,
